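Test compounds were applied to cells in 96-well plates for 48 hours at 5 doses. TGI is the concentration that stops growth completely.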
Columns and labels:
Assay in all cases: DTP human tumour cell line panel, 48 h
UACC-62 melanoma = test system: UACC-62 melanoma
M14 melanoma = test system: M14 melanoma
OVCAR-8 ovarian = test system: OVCAR-8 ovarian
HOP-92 NSCLC = test system: HOP-92 NSCLC
A549 NSCLC = test system: A549 NSCLC
SN12C renal = test system: SN12C renal
CAKI-1 renal = test system: CAKI-1 renal
LOX IMVI melanoma = test system: LOX IMVI melanoma
MALME-3M melanoma = test system: MALME-3M melanoma
DU-145 prostate = test system: DU-145 prostate
NCI-H522 lung = test system: NCI-H522 lung
OVCAR-3 ovarian = test system: OVCAR-3 ovarian
RPMI-8226 leukemia = test system: RPMI-8226 leukemia
SNB-19 CNS = test system: SNB-19 CNS
SK-MEL-28 melanoma = test system: SK-MEL-28 melanoma
PC-3 prostate = test system: PC-3 prostate
SK-MEL-2 melanoma = test system: SK-MEL-2 melanoma
SK-OV-3 ovarian = test system: SK-OV-3 ovarian
786-0 renal = test system: 786-0 renal
T-47D breast = test system: T-47D breast
SF-539 CNS = test system: SF-539 CNS
UACC-257 melanoma = test system: UACC-257 melanoma
U251 CNS = test system: U251 CNS
SF-268 CNS = test system: SF-268 CNS
HCC-2998 colon = test system: HCC-2998 colon
TK-10 renal = test system: TK-10 renal
SK-MEL-5 melanoma = test system: SK-MEL-5 melanoma
NCI-H460 lung = test system: NCI-H460 lung
HS 578T breast = test system: HS 578T breast
OVCAR-4 ovarian = test system: OVCAR-4 ovarian
A498 renal = test system: A498 renal
NCI-H23 lung = test system: NCI-H23 lung
BT-549 breast = test system: BT-549 breast
UO-31 renal = test system: UO-31 renal
RXF 393 renal = test system: RXF 393 renal
MDA-MB-231 breast = test system: MDA-MB-231 breast
SNB-75 CNS = test system: SNB-75 CNS
OVCAR-5 ovarian = test system: OVCAR-5 ovarian
EKVX NSCLC = test system: EKVX NSCLC
MDA-MB-435 = test system: MDA-MB-435
SW-620 colon = test system: SW-620 colon
HL-60(TB) leukemia = test system: HL-60(TB) leukemia
ACHN renal = test system: ACHN renal
HCT-116 colon = test system: HCT-116 colon
K-562 leukemia = test system: K-562 leukemia
MCF7 breast = test system: MCF7 breast
NCI-H226 lung = test system: NCI-H226 lung
KM12 colon = test system: KM12 colon
IGROV1 ovarian = test system: IGROV1 ovarian
MOLT-4 leukemia = test system: MOLT-4 leukemia
NCI/ADR-RES ovarian = test system: NCI/ADR-RES ovarian
HCT-15 colon = test system: HCT-15 colon
HOP-62 NSCLC = test system: HOP-62 NSCLC
HT29 colon = test system: HT29 colon
CCRF-CEM leukemia = test system: CCRF-CEM leukemia
COLO 205 colon = test system: COLO 205 colon
SF-295 CNS = test system: SF-295 CNS

With Cc1cc(C)c2c(c1)CC1(Cc3ccc(C)c(C)c3C1=O)C2=O (stereo unspecified) the TGI (UACC-62 melanoma) was over 100 µM, the TGI (M14 melanoma) was over 100 µM and the TGI (OVCAR-8 ovarian) was over 100 µM. For the same compound, the TGI (HOP-92 NSCLC) was over 100 µM, the TGI (A549 NSCLC) was over 100 µM and the TGI (SN12C renal) was over 100 µM. The TGI (CAKI-1 renal) was over 100000 nM, the TGI (LOX IMVI melanoma) was over 100 µM and the TGI (MALME-3M melanoma) was over 100 µM. For the same compound, the TGI (DU-145 prostate) was over 100 µM, the TGI (NCI-H522 lung) was over 100000 nM and the TGI (OVCAR-3 ovarian) was over 100 µM. For the same compound, the TGI (RPMI-8226 leukemia) was over 100 µM, the TGI (SNB-19 CNS) was over 100 µM and the TGI (SK-MEL-28 melanoma) was over 100 µM. It also gave a TGI (PC-3 prostate) of over 100 µM, a TGI (SK-MEL-2 melanoma) of over 100 µM and a TGI (SK-OV-3 ovarian) of over 100 µM. For the same compound, the TGI (786-0 renal) was over 100 µM, the TGI (T-47D breast) was over 100 µM and the TGI (SF-539 CNS) was over 100000 nM. The TGI (UACC-257 melanoma) was over 100 µM, the TGI (U251 CNS) was over 100 µM and the TGI (SF-268 CNS) was over 100 µM. For the same compound, the TGI (HCC-2998 colon) was over 100000 nM, the TGI (TK-10 renal) was over 100 µM and the TGI (SK-MEL-5 melanoma) was over 100 µM. The TGI (NCI-H460 lung) was over 100 µM, the TGI (HS 578T breast) was over 100000 nM and the TGI (OVCAR-4 ovarian) was over 100 µM. It also gave a TGI (A498 renal) of over 100 µM, a TGI (NCI-H23 lung) of over 100 µM and a TGI (BT-549 breast) of over 100 µM. The TGI (UO-31 renal) was over 100 µM, the TGI (RXF 393 renal) was over 100 µM and the TGI (MDA-MB-231 breast) was over 100000 nM. The TGI (SNB-75 CNS) was over 100000 nM and the TGI (OVCAR-5 ovarian) was over 100 µM.
Compound COc1cc(C2c3cc4c(cc3OC(NCCc3ccccc3)C2C)OCO4)cc(OC)c1OC (stereo unspecified) has a TGI (UACC-62 melanoma) of 35.3 µM, a TGI (M14 melanoma) of over 47.6 µM and a TGI (EKVX NSCLC) of over 94 µM. It also gave a TGI (MDA-MB-435) of 2180 nM, a TGI (SW-620 colon) of over 100 µM and a TGI (HL-60(TB) leukemia) of 547 nM. The TGI (OVCAR-8 ovarian) was over 100 µM, the TGI (ACHN renal) was over 51.8 µM and the TGI (HOP-92 NSCLC) was 63.3 µM. The TGI (A549 NSCLC) was over 90.4 µM, the TGI (HCT-116 colon) was 18.6 µM and the TGI (SN12C renal) was over 65.3 µM. For the same compound, the TGI (CAKI-1 renal) was 939 nM, the TGI (LOX IMVI melanoma) was 15.6 µM and the TGI (K-562 leukemia) was 16.9 µM. The TGI (MALME-3M melanoma) was 17.6 µM, the TGI (DU-145 prostate) was over 100 µM and the TGI (NCI-H522 lung) was 779 nM. It also gave a TGI (MCF7 breast) of 15.4 µM, a TGI (RPMI-8226 leukemia) of 14.7 µM and a TGI (SNB-19 CNS) of over 100 µM. For the same compound, the TGI (SK-MEL-28 melanoma) was over 100 µM, the TGI (NCI-H226 lung) was 7.43 µM and the TGI (SK-MEL-2 melanoma) was over 42.1 µM. It also gave a TGI (SK-OV-3 ovarian) of over 100 µM, a TGI (786-0 renal) of 18.1 µM and a TGI (T-47D breast) of 66.8 µM. For the same compound, the TGI (SF-539 CNS) was 1230 nM, the TGI (KM12 colon) was 4.12 µM and the TGI (UACC-257 melanoma) was over 85.5 µM. The TGI (IGROV1 ovarian) was 27 µM, the TGI (MOLT-4 leukemia) was over 37.7 µM and the TGI (U251 CNS) was 14.7 µM. It also gave a TGI (SF-268 CNS) of over 39.3 µM, a TGI (HCC-2998 colon) of 850 nM and a TGI (NCI/ADR-RES ovarian) of over 22.3 µM. The TGI (TK-10 renal) was over 100 µM, the TGI (SK-MEL-5 melanoma) was 4.82 µM and the TGI (NCI-H460 lung) was over 52.1 µM. It also gave a TGI (HCT-15 colon) of over 40.9 µM, a TGI (HS 578T breast) of 425 nM and a TGI (OVCAR-4 ovarian) of over 47.7 µM. The TGI (HOP-62 NSCLC) was over 70.3 µM, the TGI (NCI-H23 lung) was over 20.9 µM and the TGI (BT-549 breast) was 22.7 µM. It also gave a TGI (UO-31 renal) of 22.8 µM, a TGI (HT29 colon) of 11.1 µM and a TGI (MDA-MB-231 breast) of 1020 nM. For the same compound, the TGI (CCRF-CEM leukemia) was over 62.3 µM, the TGI (COLO 205 colon) was 605 nM and the TGI (SNB-75 CNS) was 488 nM. It also gave a TGI (OVCAR-5 ovarian) of over 100 µM and a TGI (SF-295 CNS) of 1980 nM.
